Test results: PMC6915728 (Nature Communications, 2019)

Experiments:
[1] = tested on: E. coli; details: previous laboratory evolution experiment; cited from earlier work
Excerpt: The results presented in this study may have important implications for the development of AMP-based therapies. Previous works reported several instances of cross-resistance interactions between membrane-targeting peptides (Supplementary Data 1), however, the potential for cross-resistance across AMPs with different modes of action has remained poorly understood. Specifically, while cross-resistance between host and therapeutic AMPs is certainly a realistic danger, not all AMPs are equally prone to cross-resistance. Given the immense diversity of AMPs with major differences in physicochemical ...

[2] = tested on: E. coli essential gene hypomorphic alleles; assay: Chemical-genetic screen of 279 essential gene hypomorphs on high-density agar plates (AMPs and antibiotics); assay type: cell-based, Escherichia coli; details: folA hypomorphic allele, sub-inhibitory AMP (50% growth inhibition of wild type), 32 °C, 20 h
Excerpt: Chemical-genetic profiling based on gene depletion captures a different aspect of resistance determinants than gene overexpression. […] To investigate the intrinsic AMP resistome, we initiated a chemical-genetic screen with a set of 279 partially depleted essential genes (hypomorphic alleles; see Methods) of E. coli. […] Then, using a well-established high-density agar plate assay[19],[33], we determined their chemical-genetic interaction profiles across the hypomorphic alleles (Supplementary Data 5). […]
Analogous to our E. coli synthetic genetic array approach, our chemical-genetics screening strategy involves robotic pinning of each Kan^R marked single essential gene hypomorph arrayed in 384 colony format on Luria Broth (LB) medium, in quadruplicate, onto the minimal medium containing AMPs under a selected concentration, in two replicates, generating eight replicates in total for each essential gene hypomorph. […] The normalized colony sizes from the AMP plate was subtracted from their corresponding colony screened without AMP to estimate the final hypomorphic-strain fitness score (sensitive or resistant), which is as an average of all eight replicate measurements recorded for each hypomorphic allele. A z-score distribution based p-value was calculated for all interactions and those with p ≤ 0.05 were deemed as significant interactions. […]

| Sequence | Emergence of resistant lines in laboratory evolution [1] | Effect of folA depletion on susceptibility [2] |
| --- | --- | --- |
| RWCFRVCYRGICYRKCR [TPII, Tachyplesin II, antimicrobial peptide from Japanese horseshoe crab; disrupts cell membrane; cluster C1] | did not result in any significant resistant lines | – |
| RRRPRPPYLPRPRPPPFFPPRLPPRIPPGFPPRFPPRFP [PR39, PR-39, cathelicidin, source pig; cluster C4] | – | sensitivity |
